Reference: ChEMBL document CHEMBL3779854, “Biological evaluation and molecular docking studies of new curcuminoid derivatives: Synthesis and characterization” (Bioorg Med Chem Lett, 2016)
Converted amounts (≈) assume the structure as drawn. The source made the active and inactive calls. The rule behind the calls is not given here.

Columns and labels:
[1] = Antioxidant activity assessed as H2O2 scavenging activity; format: physicochemical
Staphylococcus aureus [2] = assay: Antibacterial activity against Staphylococcus aureus ATCC 25923 at 10 ug after 24 hrs by well diffusion method; format: functional, organism-based
[3] = Antiinflammatory activity assessed as inhibition of albumin denaturation after 15 mins by BSA assay; format: functional
Escherichia coli [4] = assay: Antibacterial activity against Escherichia coli ATCC 25922 at 10 ug after 24 hrs by well diffusion method; format: functional, organism-based
[5] = Antioxidant activity assessed as DPPH free radical scavenging activity by UV-visible spectrophotometric analysis; format: physicochemical
Staphylococcus aureus [6] = assay: Antibacterial activity against Staphylococcus aureus ATCC 25923 at 50 ug after 24 hrs by well diffusion method; format: functional, organism-based
Escherichia coli [7] = assay: Antibacterial activity against Escherichia coli ATCC 25922 at 50 ug after 24 hrs by well diffusion method; format: functional, organism-based
Klebsiella pneumoniae = assay: Antibacterial activity against Klebsiella pneumoniae ATCC 13883 at 50 ug after 24 hrs by well diffusion method; format: functional, organism-based
Pseudomonas aeruginosa = assay: Antibacterial activity against Pseudomonas aeruginosa ATCC 27853 at 50 ug after 24 hrs by well diffusion method; format: functional; details: for zone of inhibition at 50 µg/disc: ATCC 27853, 24 h, read-out: IZ

SMILES	IC50 [1] [µg/mL]	IC50 [3] [µg/mL]	IC50 [5] [µg/mL]	Activity (Staphylococcus aureus [2])	Activity (Escherichia coli [4])	Activity (Staphylococcus aureus [6])	Activity (Escherichia coli [7])	Activity (Klebsiella pneumoniae)	Activity (Pseudomonas aeruginosa)	zone of inhibition at 50 µg/disc (Pseudomonas aeruginosa) [mm]
CN(C)c1ccc(/C=C/C(=O)/C(CNc2cccc(C(F)(F)F)c2)=C(O)/C=C/c2ccc(N(C)C)cc2)cc1	74.6 (≈ 139 µM)	186.05 (≈ 347 µM)	81.69 (≈ 153 µM)	inactive	inactive					
O=C1O[C@H]([C@@H](O)CO)C(O)=C1O [ASCORBIC ACID]	68.82 (≈ 391 µM)		65.53 (≈ 372 µM)							
CN(C)c1ccc(/C=C/C(=O)/C=C(O)/C=C/c2ccc(N(C)C)cc2)cc1	74.56 (≈ 206 µM)	180.38 (≈ 498 µM)	78.52 (≈ 217 µM)							
COc1cc(/C=C/C(=O)CC(=O)/C=C/c2ccc(O)c(OC)c2)ccc1O [CURCUMIN]	52.24 (≈ 142 µM)	129.85 (≈ 352 µM)	52.51 (≈ 143 µM)	Active	Active	Active	Active	Active		11
CN(C)c1ccc(/C=C/C(=O)/C(CNc2ccc(F)cc2)=C(O)/C=C/c2ccc(N(C)C)cc2)cc1	46.9 (≈ 96.6 µM)	226.71 (≈ 467 µM)	48.16 (≈ 99.2 µM)	inactive	Active		Active	Active		12
COc1ccccc1NC/C(C(=O)/C=C/c1ccc(N(C)C)cc1)=C(O)\C=C\c1ccc(N(C)C)cc1	53.94 (≈ 108 µM)	81.36 (≈ 163 µM)	76.28 (≈ 153 µM)		Active	Active				
CN(C)c1ccc(/C=C/C(=O)/C(CNc2ccccc2)=C(O)/C=C/c2ccc(N(C)C)cc2)cc1	52.13 (≈ 111 µM)	808.36 (≈ 1730 µM)	79.06 (≈ 169 µM)	Active	Active	Active				
O=C([O-])Cc1ccccc1Nc1c(Cl)cccc1Cl.[Na+] [DICLOFENAC SODIUM]		52.95								

The next lines start with results.

IC50 [1] [µg/mL]	IC50 [3] [µg/mL]	IC50 [5] [µg/mL]	SMILES	Activity (Staphylococcus aureus [2])	Activity (Escherichia coli [4])	Activity (Staphylococcus aureus [6])	Activity (Escherichia coli [7])	Activity (Klebsiella pneumoniae)	Activity (Pseudomonas aeruginosa)	zone of inhibition at 50 µg/disc (Pseudomonas aeruginosa) [mm]
89.05 (≈ 197 µM)	216.32 (≈ 478 µM)	74.38 (≈ 164 µM)	CN(C)c1ccc(/C=C/c2cc(/C=C/c3ccc(N(C)C)cc3)n(-c3ccc(F)cc3)n2)cc1		Active	Active	Active	Active		
50.78 (≈ 142 µM)	51.79 (≈ 144 µM)	46.05 (≈ 128 µM)	CN(C)c1ccc(/C=C/c2cc(/C=C/c3ccc(N(C)C)cc3)[nH]n2)cc1	inactive	Active			Active	Active	
72.42 (≈ 167 µM)	29.44 (≈ 67.7 µM)	74.03 (≈ 170 µM)	CN(C)c1ccc(/C=C/c2cc(/C=C/c3ccc(N(C)C)cc3)n(-c3ccccc3)n2)cc1	Active	Active	Active	Active			
44.95 (≈ 90.5 µM)	106.16 (≈ 214 µM)	75.37 (≈ 152 µM)	COc1cc(C=C(C(=O)/C=C/c2ccc(N(C)C)cc2)C(=O)/C=C/c2ccc(N(C)C)cc2)ccc1O		Active		Active		Active	
79.59 (≈ 171 µM)	751.12 (≈ 1620 µM)	88.05 (≈ 190 µM)	COc1ccc(-n2nc(/C=C/c3ccc(N(C)C)cc3)cc2/C=C/c2ccc(N(C)C)cc2)cc1	inactive	Active					
